Test results published in ChEMBL document CHEMBL1131315, “Synthesis and anticonvulsant activity of 2(3H)-benzoxazolone and 2(3H)-benzothiazolone derivatives” (J Med Chem, 1998).
Activity calls are given as the source filed them. No cut-off for these calls is given here.

Experiments:
[1] = test system: Mus musculus; test: The compound was tested to inhibit 50% of induced subcutaneous pentylenetetrazole seizure in mice on ip administration; type: functional
[2] = test system: Rattus norvegicus; test: The compound was tested for the toxic dose on oral administration; type: functional
[3] = test system: Mus musculus; test: The compound was tested for anticonvulsant activity in subcutaneous pentylenetetrazole seizure test (sc Met) for 4 hr in mice; activity at 300 mg/kg; type: functional, organism-based; parameters: dose 300 mg/kg
[4] = The compound was tested for neurologic toxicity (rotarod) test for 30 min in mice; activity at 100 mg/kg; type: organism-based; parameters: dose 100 mg/kg; conditions: mouse, in vivo, 0.5 h
[5] = test system: Mus musculus; test: Anticonvulsant activity in Maximal electroshock seizure test at 100 mg/kg i.p. in mice.; type: functional, organism-based; parameters: dose 100 mg/kg
[6] = The compound was tested for neurologic toxicity (rotarod) test for 4 hr in mice; no activity or toxicity at 300 mg/kg; type: organism-based; parameters: dose 300 mg/kg; conditions: mouse, in vivo
[7] = test system: Mus musculus; test: The compound was tested for anticonvulsant activity in subcutaneous pentylenetetrazole seizure test (sc Met) for 30 min in mice; activity at 300 mg/kg; type: functional, organism-based; parameters: dose 300 mg/kg
[8] = test system: Mus musculus; test: The compound was tested for anticonvulsant activity in Maximal electroshock seizure test for 4 hr in mice(ip); active at 300 mg/kg; type: functional, organism-based; parameters: dose 300 mg/kg
[9] = test system: Rattus norvegicus; test: The compound was tested per os dose of 25 mg/kg for 1 hour for maximal electroshock test on rats; MES= 3/4; type: functional
[10] = test system: Mus musculus; test: Inhibition of s.c. pentylenetetrazole induced seizure in mice following i.p. administration.; type: functional
[11] = test system: Rattus norvegicus; test: The compound was tested per os dose of 25 mg/kg for 4 hours for maximal electroshock test on rats; MES= 2/4; type: functional
[12] = The compound was determined for the dose (mg/kg) by rotarod test at the time of peak neurotoxic effect in mice on ip administration.; type: ADME, organism-based; conditions: mouse, in vivo
[13] = The compound was tested for neurologic toxicity (rotarod) test for 4 hours in mice; active at 300 mg/kg; type: organism-based; parameters: dose 300 mg/kg; conditions: mouse, in vivo
[14] = test system: Mus musculus; test: The compound was tested for anticonvulsant activity in Maximal electroshock seizure test (MES) for 4 hr in mice(ip); active at 100 mg/kg; type: functional, organism-based; parameters: dose 100 mg/kg
[15] = test system: Rattus norvegicus; test: The compound was tested for the toxic dose on oral administration.; type: functional
[16] = test system: Rattus norvegicus; test: The compound was tested peroral dose of 25 mg/kg for 0.25 hours for rotarod toxicity; 0/4; type: functional; conditions: route oral
[17] = test system: Mus musculus; test: The compound was tested for anticonvulsant activity in subcutaneous pentylenetetrazole seizure test (sc Met) for 30 min in mice; active at 100 mg/kg; type: functional, organism-based; parameters: dose 100 mg/kg
[18] = test system: Rattus norvegicus; test: The compound was tested for the effective oral dose to inhibit 50% of the anticonvulsant in rats.(Value in parenthesis indicate 95% confidence limits).; type: functional
[19] = Protective index value is the ratio between ED50 and TD50; type: functional
[20] = test system: Rattus norvegicus; test: The compound was tested per os dose of 25 mg/kg for 2 hours for maximal electroshock test on rats; MES= 2/4; type: functional
[21] = test system: Mus musculus; test: The compound was tested to inhibit 50% of induced maximal electroshock seizure in mice on ip administration; type: functional
[22] = test system: Rattus norvegicus; test: The compound was tested peroral dose of 25 mg/kg for 2 hours for rotarod toxicity; 0/4; type: functional; conditions: route oral
[23] = test system: Rattus norvegicus; test: The compound was tested peroral dose of 25 mg/kg for 0.5 hours for rotarod toxicity; 0/4; type: functional; conditions: route oral
[24] = test system: Rattus norvegicus; test: The compound was tested per os dose of 25 mg/kg for 0.5 hours for maximal electroshock test on rats; MES= 3/4; type: functional
[25] = test system: Mus musculus; test: The compound was tested for anticonvulsant activity in subcutaneous pentylenetetrazole seizure test (sc Met) for 4 hr in mice; active at 300 mg/kg; type: functional, organism-based; parameters: dose 300 mg/kg
[26] = The compound was tested for time of peak effect (TPE) in hours for its toxicity in mice on ip administration.; type: organism-based; conditions: mouse, in vivo
[27] = test system: Mus musculus; test: Time of peak effect in mice following i.p. administration.; type: functional
[28] = The compound was tested for neurologic toxicity (rotarod) test for 30 min in mice; active at 100 mg/kg; type: organism-based; parameters: dose 100 mg/kg; conditions: mouse, in vivo, 0.5 h
[29] = test system: Rattus norvegicus; test: The compound was tested peroral dose of 25 mg/kg for 1 hour for rotarod toxicity; 0/4; type: functional; conditions: route oral
[30] = test system: Rattus norvegicus; test: The compound was tested peroral dose of 25 mg/kg for 4 hours for rotarod toxicity; 0/4; type: functional; conditions: route oral
[31] = test system: Rattus norvegicus; test: The compound was tested per os dose of 30 mg/kg for 0.25 hours for maximal electroshock test on rats; MES= 0/4; type: functional

O=C1NC(=O)C(c2ccccc2)(c2ccccc2)N1 [PHENYTOIN]
ED50 [1]: > 300 mg/kg
TD50 [2]: > 3000 mg/kg

CCCCC(=O)c1ccc2c(c1)sc(=O)n2C(C)=O
scMet [3]: activity at 300 mg/kg
Rotarod toxicity [4]: activity at 100 mg/kg
MES [5]: active at 300 mg/kg
Rotarod toxicity [6]: activity at 100 mg/kg
scMet [7]: activity at 300 mg/kg
MES [8]: active at 300 mg/kg

Oc1nc2ccc(Cc3ccccc3)cc2o1
Protected/Tested [9]: 3
ED50 [10]: 77.2 mg/kg
Protected/Tested [11]: 2
TD50 [12]: 164 mg/kg
Rotarod toxicity [13]: active at 100 mg/kg
MES [14]: active at 100 mg/kg
TD50 [15]: > 500 mg/kg
No. of animals exhibiting toxicity / Number of animals tested [16]: 0
MES [5]: active at 100 mg/kg
scMet [17]: active at 100 mg/kg
ED50 [18]: 23.1 mg/kg
PI [19]: 21.7
Protected/Tested [20]: 2
ED50 [21]: 68.3 mg/kg
No. of animals exhibiting toxicity / Number of animals tested [22]: 0
No. of animals exhibiting toxicity / Number of animals tested [23]: 0
Protected/Tested [24]: 3
scMet [25]: active at 100 mg/kg
Toxicity [26]: 1 h
Activity [27]: 0.5 h
Rotarod toxicity [28]: active at 100 mg/kg
No. of animals exhibiting toxicity / Number of animals tested [29]: 0
No. of animals exhibiting toxicity / Number of animals tested [30]: 0
Protected/Tested [31]: 0
